Data on 25 compounds can be found in patent US20100152213A1, “COMPOUND THAT IS A DUAL INHIBITOR OF ENZYMES PDE7 AND/OR PDE4, PHARMACEUTICAL COMPOSITIONS AND USES THEREOF” (priority 2007, published 2010).

Read-outs that look alike come from different tables or passages of the source. Where only a bound is given, the exact number is not on record here.

In data set [1] the test system is clone of Th2 lymphocytes (D10.G4.1).
Description: Cell toxicity tests were carried out on a clone of Th2 lymphocytes (D10.G4.1) through flow cytometry using Propidium Iodide in order to determine cell death.
After this time, the cells were washed and incubated with 5 μg/ml of Propidium Iodide during 1 min. The samples treated in this way were analysed by cytometry using BD FACSCanto™ equipment.
Data set [2] addresses T1, catalytic domain of PDE7A1 (aa. 130-482) (Homo sapiens, UniProt Q13946).
T1 construct: The catalytic domain of PDE7A1 (aá. 130-482); made in house; host or cells: E. coli BL21
Description: PDE inhibitor test, PDE7A1 (3H-cAMP hydrolysis). Type of data set: biochemical. Conditions: substrate at 1/10 of KM; six inhibitor concentrations; duplicate; read-out: Inhibitor data of PDE7A1 (CI50).

In data set [3] the test system is T-lymphocytes. Description: Study of intracellular cAMP levels (cAMP Biotrak Enzymeimmunoassay). Type of data set: cell-based. Conditions: inhibitor alone (FIG. 5). As to the method: PDE inhibition has the direct effect of increasing cAMP, since their degradation is prevented. In order to verify this effect on the cell system of T-lymphocytes two compounds of formula (I) of the invention were chosen, specifically: TC 3.6 and TC 3.14 and cAMP concentration was measured using the cAMP Biotrak Enzymeimmunoassay System of Amersham Biosciences kit.
(Changes in cAMP serve as a functional read-out for many G protein-coupled receptors.)

Data set [4] addresses T2, complete enzyme of PDE4D2 (aa. 1-507) (Homo sapiens, UniProt Q08499).
T2 construct: the complete enzyme of PDE4D2 (aa. 1-507); made in house; host or cells: E. coli BL21
Description: PDE inhibitor test, PDE4D2 (3H-cAMP hydrolysis). Type of data set: biochemical. To be noted: substrate at 1/10 of KM; six inhibitor concentrations; duplicate; read-out: Inhibitor data of PDE4D2 (CI50). Here is the method:
The catalytic domain of PDE7A1 (aá. 130-482) and the complete enzyme of PDE4D2 (aa. 1-507) were subcloned in pET vectors, overexpressed in E. coli strain BL21, and purified to homogeneity as described in the bibliography (Wang, H., Liu, Y., Chen, Y., Robinson, H., and Ke, H. Multiple elements jointly determine inhibitor selectivity of cyclic nucleotide phosphodiesterases 4 and 7. J. Biol. Chem. 2005, 280, 30949-30955). The enzymatic activities of PDE7A1 and PDE4D2 were tested through incubation of the enzymes with 100 μL of a reaction mixture that contained 50 mM Tris.HCl (pH 8.5), 50 mM MgCl2, 5 mM DTT, and ^3H-cAMP (20000 cpm per test, Sigma-Aldrich) at room temperature during 10 minutes. The reactions were concluded by adding 200 μL 0.2 M ZnSO4 when 20-50% of the cAMP was hydrolysed. The product of the reaction, ^3H-AMP, was precipitated by adding 200 μL 0.25 M Ba(OH)2 (Sigma-Aldrich), while the unreacted ^3H-AMPc remained in the supernatant. Radioactivity of the supernatant was measured with a mixture of scintillation liquid (ScintiSafe PlusTM 50%, Fisher Scientific) using the counter LKB RackBeta 1214.
For inhibitor measurements, six concentrations of inhibitors were used in the presence of a substrate concentration equivalent to 1/10 of the KM and the enzyme concentration that hydrolyses 50% of the substrate. […] All experiments were carried out in duplicate.

The mark [5] stands for this setting: D10.G4.1 cells, 1×10^6 cells/ml, 48 h.

T1 sequence (Q13946 130-482): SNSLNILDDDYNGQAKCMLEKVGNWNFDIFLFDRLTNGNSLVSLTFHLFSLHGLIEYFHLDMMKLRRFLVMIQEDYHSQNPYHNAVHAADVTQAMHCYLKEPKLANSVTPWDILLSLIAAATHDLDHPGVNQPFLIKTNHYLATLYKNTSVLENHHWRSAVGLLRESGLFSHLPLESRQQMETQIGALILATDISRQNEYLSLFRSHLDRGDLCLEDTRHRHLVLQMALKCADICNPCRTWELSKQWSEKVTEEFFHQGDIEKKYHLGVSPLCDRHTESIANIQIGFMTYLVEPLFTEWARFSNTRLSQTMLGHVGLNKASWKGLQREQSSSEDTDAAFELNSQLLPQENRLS
T2 sequence (Q08499 303-809): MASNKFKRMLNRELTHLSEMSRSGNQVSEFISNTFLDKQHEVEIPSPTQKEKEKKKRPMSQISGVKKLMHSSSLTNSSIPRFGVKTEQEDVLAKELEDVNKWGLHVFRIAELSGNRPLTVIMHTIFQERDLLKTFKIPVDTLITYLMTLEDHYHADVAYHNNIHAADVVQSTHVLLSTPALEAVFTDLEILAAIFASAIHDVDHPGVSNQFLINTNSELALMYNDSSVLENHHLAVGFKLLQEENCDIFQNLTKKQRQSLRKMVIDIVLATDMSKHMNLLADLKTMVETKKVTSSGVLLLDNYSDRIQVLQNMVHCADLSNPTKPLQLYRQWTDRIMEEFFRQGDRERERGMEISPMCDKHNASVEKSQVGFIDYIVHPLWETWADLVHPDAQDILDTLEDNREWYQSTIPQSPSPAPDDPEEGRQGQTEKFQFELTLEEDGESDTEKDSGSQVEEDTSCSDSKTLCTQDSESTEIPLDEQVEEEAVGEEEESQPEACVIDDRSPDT

Regarding “3-(2,6-difluorophenyl)-2-methylthio-4-thioxo-3,4-dihydroquinazoline [TC2.43]”, in data set [1] (setting [5]), the “maximum concentration at which more than 80% cellular viability was maintained in comparison to the control of cells without inhibitor” value stood at 5 µM. Take `Cc1ccc([N+](=O)[O-])cc1S(=O)(=O)N(C)C` [BRL50481, 3-(N,N-dimethylsulfonamide)-4-methyl-nitrobenzene, reference compound]: in data set [1] (setting [5]), the “maximum concentration at which more than 80% cellular viability was maintained in comparison to the control of cells without inhibitor” value was over 1000 µM. On to `COc1ccc(C2CNC(=O)C2)cc1OC1CCCC1` (stereo not drawn) [Rolipram, reference compound], for which the “maximum concentration at which more than 80% cellular viability was maintained in comparison to the control of cells without inhibitor” value in data set [1] (setting [5]) is over 1000 µM.

For the compound `O=c1c2cc(Br)ccc2[nH]c(=S)n1-c1ccccc1` [TC2.30A, 6-Bromo-3-phenyl-4-oxo-2-thioxo-1,2,3,4-tetrahydroquinazoline], the IC50 in data set [2] was over 10000 nM.

As for `Fc1ccc(-n2c(=S)[nH]c3ccccc3c2=S)c(F)c1F` [TC2.45, 3-(2,3,4-Trifluorophenyl)-2,4-dithioxo-1,2,3,4-tetrahydroquinazoline], the IC50 in data set [2] is over 1000 nM.

For the compound `Fc1cccc(F)c1-n1c(=S)[nH]c2ccccc2c1=S` [TC2.49, 3-(2,6-Difluorophenyl)-2,4-dithioxo-1,2,3,4-tetrahydroquinazoline], in data set [2], the IC50 was about 1000 nM. In data set [1] (mouse, 48 h), the “maximum concentration at which more than 80% cellular viability was maintained in comparison to the control of cells without inhibitor” value was found to be 50 µM. Take `CSc1nc2ccccc2c(=S)n1-c1ccc(F)c(F)c1F` [TC2.51, 3-(2,3,4-trifluorophenyl)-2-methylthio-4-thioxo-3,4-dihydroquinazoline]: in data set [2], the IC50 is over 1000 nM. `CSc1nc2ccccc2c(=S)n1-c1c(F)cccc1F` [TC3.1, 3-(2,6-difluorophenyl)-2-methylthio-4-thioxo-3,4-dihydroquinazoline]: in data set [2], the IC50 was 100 to 1000 nM. In addition, the “maximum concentration at which more than 80% cellular viability was maintained in comparison to the control of cells without inhibitor” value in data set [1] (mouse, 48 h) turned out to be 10 µM.

For `S=c1[nH]c2ccccc2c(=S)n1-c1ccccc1` [TC3.6, 3-Phenyl-2,4-dithioxo-1,2,3,4-tetrahydroquinazoline], the “amount of intracellular cAMP in relation to the control” value in data set [3] is on record as “increased in a statistically significant manner”. Besides, the IC50 in data set [2] stood at 1040 ± 80 nM; in data set [4], 5700 ± 30 nM. In addition, the “cell toxicity (in words)” value in data set [1] (D10.G4.1 cells, 48 h, among the compounds of new synthesis) is “most moderate toxicity”. Besides, in data set [1] (mouse, 48 h), the “maximum concentration at which more than 80% cellular viability was maintained in comparison to the control of cells without inhibitor” value turned out to be 1000 µM. In the case of `CSc1nc2ccccc2c(=S)n1-c1ccccc1` [TC3.9, 3-Phenyl-2-methylthio-4-thioxo-3,4-dihydroquinazoline], the results for the IC50 in data set [2] and in data set [4] were 840 ± 10 nM and 8000 ± 1200 nM, respectively. Besides, the “maximum concentration at which more than 80% cellular viability was maintained in comparison to the control of cells without inhibitor” value in data set [1] (mouse, 48 h) was determined as 100 µM. As to `CSc1nc2ccccc2c(=S)n1-c1ccccc1Br` [TC3.13, 3-(2-bromophenyl)-2-methylthio-4-thioxo-3,4-dihydroquinazoline], the IC50 in data set [2] lay within 100 to 1000 nM. In data set [1] (mouse, 48 h), the “maximum concentration at which more than 80% cellular viability was maintained in comparison to the control of cells without inhibitor” value amounted to 10 µM. With `Cc1cccc2c(=O)n(-c3ccccc3Br)c(=S)[nH]c12` [TC3.14, 3-(2-Bromophenyl)-8-methyl-4-oxo-2-thioxo-1,2,3,4-tetrahydroquinazoline], the “amount of intracellular cAMP in relation to the control” value in data set [3] is “increased in a statistically significant manner”. Also, the figures for the IC50 in data set [2] and in data set [4] were 1700 ± 100 nM and 34000 ± 5000 nM, respectively. In addition, the “cell toxicity (in words)” value in data set [1] is on record as “most moderate toxicity”. Moreover, the “maximum concentration at which more than 80% cellular viability was maintained in comparison to the control of cells without inhibitor” value in data set [1] (mouse, 48 h) is 600 µM. In the case of `CSc1nc2c(C)cccc2c(=O)n1-c1ccccc1` [TC3.15b, 3-Phenyl-8-methyl-2-methylthio-4-oxo-3,4-dihydroquinazoline], in data set [2], the IC50 is about 1000 nM. In data set [1], the “cell toxicity (in words)” value is on record as “most moderate toxicity”. For the same compound, the “maximum concentration at which more than 80% cellular viability was maintained in comparison to the control of cells without inhibitor” value in data set [1] (mouse, 48 h) amounted to 600 µM. Regarding `Cc1cccc2c(=O)n(-c3c(F)cccc3F)c(=S)[nH]c12` [TC3.16, 3-(2,6-Difluorophenyl)-8-methyl-4-oxo-2-thioxo-1,2,3,4-tetrahydroquinazoline], the IC50 in data set [2] is over 1000 nM.

As for `Cc1cccc2c(=O)n(-c3ccc(F)c(F)c3F)c(=S)[nH]c12` [TC3.17, 3-(2,3,4-Trifluorophenyl)-8-methyl-4-oxo-2-thioxo-1,2,3,4-tetrahydroquinazoline], the IC50 in data set [2] was over 10000 nM. Regarding `CSc1nc2c(C)cccc2c(=O)n1-c1ccccc1Br` [TC3.22, 3-(2-Bromophenyl)-8-methyl-2-methylthio-4-oxo-3,4-dihydroquinazoline], the IC50 in data set [2] was 270 ± 20 nM; in data set [4], 1100 ± 200 nM. In addition, the “maximum concentration at which more than 80% cellular viability was maintained in comparison to the control of cells without inhibitor” value in data set [1] (mouse, 48 h) turned out to be 5 µM. Turning to `CSc1nc2c(C)cccc2c(=O)n1-c1c(F)cccc1F` [TC3.23, 3-(2,6-Difluorophenyl)-8-methyl-2-methylthio-4-oxo-3,4-dihydroquinazoline], the values for the IC50 in data set [2] and in data set [4] were 130 ± 20 nM and 1400 ± 200 nM, respectively. In addition, in data set [1] (mouse, 48 h), the “maximum concentration at which more than 80% cellular viability was maintained in comparison to the control of cells without inhibitor” value was determined as 10 µM. Turning to `CSc1nc2c(C)cccc2c(=O)n1-c1ccc(F)c(F)c1F` [TC3.24, 3-(2,3,4-Trifluorophenyl)-8-methyl-2-methylthio-4-oxo-3,4-dihydroquinazoline], the IC50 in data set [2] was over 1000 nM. Regarding `O=c1c2cc(Br)ccc2[nH]c(=S)n1-c1ccccc1Br` [TC3.28, 6-Bromo-3-(2-bromophenyl)-4-oxo-2-thioxo-1,2,3,4-tetrahydroquinazoline], in data set [2], the IC50 is about 10000 nM. In the case of `O=c1c2cc(Br)ccc2[nH]c(=S)n1-c1c(F)cccc1F` [TC3.29, 6-Bromo-3-(2,6-difluorophenyl)-4-oxo-2-thioxo-1,2,3,4-tetrahydroquinazoline], in data set [2], the IC50 is over 10000 nM. For the compound `O=c1c2cc(Br)ccc2[nH]c(=S)n1-c1ccc(F)c(F)c1F` [TC3.30, 6-Bromo-3-(2,3,4-trifluorophenyl)-4-oxo-2-thioxo-1,2,3,4-tetrahydroquinazoline], the IC50 in data set [2] was over 10000 nM.

On to `CSc1nc2ccc(Br)cc2c(=O)n1-c1ccc(F)c(F)c1F` [TC3.32, 6-Bromo-3-(2,3,4-trifluorophenyl)-2-methylthio-4-oxo-3,4-dihydroquinazoline], for which the IC50 in data set [2] amounted to 2100 ± 100 nM. Besides, in data set [1] (mouse, 48 h), the “maximum concentration at which more than 80% cellular viability was maintained in comparison to the control of cells without inhibitor” value was 100 µM. In the same order, the values of `CSc1nc2ccc(Br)cc2c(=O)n1-c1ccccc1Br` [TC3.35, 6-Bromo-3-(2-bromophenyl)-2-methylthio-4-oxo-3,4-dihydroquinazoline] are 1860 ± 180 nM and 10 µM.

`CSc1nc2ccc(Br)cc2c(=O)n1-c1c(F)cccc1F` [TC3.36, 6-Bromo-3-(2,6-difluorophenyl)-2-methylthio-4-oxo-3,4-dihydroquinazoline]: the IC50 in data set [2] worked out at 240 ± 30 nM; in data set [4], 4500 ± 100 nM. In addition, the “maximum concentration at which more than 80% cellular viability was maintained in comparison to the control of cells without inhibitor” value in data set [1] (mouse, 48 h) is 10 µM. With `CSc1nc2ccc(Br)cc2c(=O)n1-c1ccccc1` [TC3.47A, 6-Bromo-3-phenyl-2-methylthio-4-oxo-3,4-dihydroquinazoline], in data set [2], the IC50 is over 1000 nM.
